Data set [1] relates to L1210. The data set can be described thus: Antiproliferative activity against mouse L1210 cells by MTT reduction assay. Format: functional, cell-based. (Formazan colour is commonly taken as a measure of viable cells.)
Data set [2] relates to A549. The data set can be described thus: Antiproliferative activity against human A549 cells by MTT reduction assay. Format: functional, cell-based.
The subject of data set [3] is HT-29. The data set can be described thus: Antiproliferative activity against human HT-29 cells by MTT reduction assay. Format: functional, cell-based.
Data set [4] is described as follows: Toxicity in po dosed rat. Format: organism-based. The note with it: in vivo.

≈ marks a conversion by molar mass, not a printed value.

For orientation: IC50 means the point on the concentration scale where inhibition reaches its midpoint. As to `C[C@H]1CCC/C=C/[C@@H]2C[C@H](O[C@@H]3O[C@H](CO)[C@H](O)[C@H](O)[C@H]3O)C[C@H]2[C@H](O)/C=C/C(=O)O1` [7-O-BETA-D-GALACTOSYL-BREFELDIN A], the figures for the IC50 in data set [1], in data set [2] and in data set [3] were 10 µg/mL (≈ 22.6 µM), 1.2 µg/mL (≈ 2.71 µM) and 1.3 µg/mL (≈ 2.94 µM), respectively.
In general, LD50 refers to the dose expected to kill half of the subjects tested. Read a high LD50 as a less toxic substance. `C[C@H]1CCC/C=C/[C@@H]2C[C@H](O)C[C@H]2[C@H](O)/C=C/C(=O)O1` [BREFELDIN A] came in with an LD50 in data set [4] of 275 mg/kg.
